This note sets out measurements from PubChem BioAssay AID1996.

In brackets after ≈: the same amount, converted by molar mass.

For this series the following is noted: buffer; pH 7.4; 200.0 µM.
A word on the kinetic solubility: it is solubility judged after dilution from a stock solution rather than from solid. `Cc1cccc(C(=O)OCC(=O)NC(=O)c2ccccc2)c1O` had a kinetic solubility below 0.7 µg/mL.

In turn, `O=C1/C(=C/c2ccc([N+](=O)[O-])cc2)CCC1C1CCCC1` (stereo unspecified) came in with a solubility (kinetic) of 1 µg/mL (≈ 3.5 µM).

`CC(C)S(=O)(=O)c1csc(NC(=O)Nc2cccc([N+](=O)[O-])c2)c1Cl` yielded a solubility (kinetic) below 0.3 µg/mL.

Regarding `Cc1ccc(NC(=O)c2cnccn2)cc1C`, the solubility (kinetic) is 31.7 µg/mL (≈ 139 µM).

The compound `Cc1ccc(C(=O)NC2=NCCS2)cc1` had a solubility (kinetic) of 32.9 µg/mL (≈ 149 µM).

The compound `N#Cc1ccc(OCc2noc(-c3ccsc3)n2)cc1` had a solubility (kinetic) of 0.3 µg/mL (≈ 1.06 µM).

In the case of `CCn1cc([N+](=O)[O-])c(=O)c2cc(F)c(N3CCOCC3)cc21`, the kinetic solubility came out at 13.5 µg/mL (≈ 42 µM).

`Cc1csc(=O)n1CC(=O)Nc1ccc(Cl)c(Cl)c1` came in with a solubility (kinetic) of 9.7 µg/mL (≈ 30.6 µM).

The compound `CCOP(=O)(OCC)C(NC(=O)NC)C(N)=O` (stereo unspecified) yielded a solubility (kinetic) of 30.4 µg/mL (≈ 114 µM).

In the case of `O=C(NCc1ccccc1C(F)(F)F)C1CCC(=O)N(C2CC2)C1` (stereo unspecified), the kinetic solubility was above 51.1 µg/mL.

As for `CCOC(=O)c1[nH]cnc1C(=O)Nc1ccccc1OC`, the solubility (kinetic) is 10.3 µg/mL (≈ 35.6 µM).

`O=C(Nc1cccc(Cl)c1)Nc1cccc(C(=O)O)c1` registered a solubility (kinetic) above 43.6 µg/mL.

Compound `CC(O)c1cccc(NC(=O)CCCc2ccccc2)c1` (stereo unspecified) registered a solubility (kinetic) of 39 µg/mL (≈ 138 µM).

Consider `Cn1c2c(c(=O)c3ccccc31)CCCC2`, for which the kinetic solubility was above 32 µg/mL.

As for `COc1ccc(C(=O)N[C@H](C(=O)NCc2ccc(C)cc2)C(C)C)cc1`, the solubility (kinetic) was 1.1 µg/mL (≈ 3.1 µM).

For the compound `C=CCOn1c(=O)c(-c2ccc(F)cc2)[n+]([O-])c2ccccc21`, the solubility (kinetic) stood at 2 µg/mL (≈ 6.4 µM).

`CCN(CC)CCCNc1ncnc2scc(-c3ccc(F)cc3)c12` displayed a kinetic solubility above 53.8 µg/mL.

Consider `COc1ccccc1NC(=O)CC(=O)c1ccccc1`, for which the kinetic solubility is above 40.4 µg/mL.

On to `CC(=O)Nc1ccc(-c2nc3ccc(NC(C)=O)cc3o2)cc1`, for which the solubility (kinetic) was determined as 2.2 µg/mL (≈ 7.11 µM).

In turn, `CN1CCN(CCOc2ccc(Cc3ccccc3)cc2)CC1.Cl` registered a solubility (kinetic) of 40.4 µg/mL.

Compound `O=C(NC(=S)Nc1ccccc1O)c1cccnc1` yielded a kinetic solubility above 41 µg/mL.

`O=S(=O)(/N=C/c1c(O)ccc2ccccc12)c1ccccc1` gave a kinetic solubility above 46.7 µg/mL.

`CC(C)C(=O)NC(NC1CCS(=O)(=O)C1)C(Cl)(Cl)Cl` (stereo unspecified) had a kinetic solubility above 52.8 µg/mL.

The compound `O=C(CN1C(=O)COc2ccc(Cl)cc21)NCC1CCCO1` (stereo unspecified) yielded a kinetic solubility above 48.7 µg/mL.

The compound `COCCNC(=O)CN1CCCCCC1.Cl` had a solubility (kinetic) of 34.8 µg/mL.

In the case of `Cc1cc(N2CCOCC2)n2cc(-c3ccccc3)nc2n1`, the kinetic solubility came to 12.3 µg/mL (≈ 41.8 µM).

`COc1nc(-c2cccc([N+](=O)[O-])c2)nc2ccccc12`: the kinetic solubility is below 0.2 µg/mL.

In turn, `Cc1ccc(NC(=O)CN2CCCC2)cc1.Cl` returned a kinetic solubility above 38.2 µg/mL.

For the compound `CCOc1ccc(S(=O)(=O)/N=C(/Nc2ccc(C)c(S(=O)(=O)N3CCOCC3)c2)c2ccccc2)cc1`, the kinetic solubility amounted to 7.9 µg/mL (≈ 14.5 µM).

For `CCC(C(=O)OC)n1c(-c2ccccc2)nc2ccccc2c1=O` (stereo unspecified), the kinetic solubility was determined as 1.5 µg/mL (≈ 4.65 µM).

`COc1ccccc1N(CCOc1ccccc1)S(=O)(=O)c1ccccc1` displayed a kinetic solubility of 3.9 µg/mL (≈ 10.2 µM).

Take `CC(=O)N1CCn2c3c(c4cc(C)ccc42)CCCC31` (stereo unspecified): the kinetic solubility is 38.6 µg/mL (≈ 144 µM).

Compound `O=C(NC1CCCCC1)c1cc([N+](=O)[O-])ccc1N1CCCC1` returned a solubility (kinetic) of 3.3 µg/mL (≈ 10.4 µM).

The compound `O=C(CCNC(=O)c1ccccc1Cl)Nc1ccc(S(=O)(=O)Nc2nccs2)cc1` returned a solubility (kinetic) above 69.7 µg/mL.

Compound `CC(C)(C)n1cnc2cc(NCc3ccccc3O)ccc21` gave a kinetic solubility of 34.5 µg/mL (≈ 117 µM).

As to `Cc1ccc(C(=O)Nc2cccc(NC(=O)CN3CCCCC3)c2)cc1`, the kinetic solubility was 41.4 µg/mL (≈ 118 µM).

`COc1cc(/C=C/c2ccc3cccc(O)c3n2)ccc1O` showed a solubility (kinetic) of 4.8 µg/mL (≈ 16.4 µM).

As for `Cn1ccnc1-c1ccc(-c2nccn2C)cc1`, the solubility (kinetic) was 33.8 µg/mL (≈ 142 µM).

`O=C(/C=C/c1ccccc1)Nc1cccnc1` returned a kinetic solubility above 33.6 µg/mL.

With `COc1ccc(OCc2nc(-c3ccc(F)c(F)c3)cs2)cc1`, the solubility (kinetic) is below 0.7 µg/mL.

As to `COc1ccc2nc(C)cc(Nc3ccc(N4CCN(C)CC4)cc3)c2c1`, the solubility (kinetic) was above 54.4 µg/mL.

The compound `O=C(NCc1ccc(Cl)cc1Cl)Nc1ccccc1` yielded a kinetic solubility of 0.4 µg/mL (≈ 1.36 µM).

Turning to `COc1cc(C(=O)NCCC(=O)NC(C)C)cc(OC)c1OC`, the kinetic solubility was above 48.7 µg/mL.

`O=C(Nc1ccccc1)Nc1ccno1` registered a kinetic solubility above 30.5 µg/mL.

Compound `O=S(=O)(Cc1ccccc1Cl)NCc1ccccc1` came in with a solubility (kinetic) of 32.1 µg/mL (≈ 109 µM).

As for `O=C(Nc1ccc2ccccc2c1)c1ccc(Cl)cc1`, the solubility (kinetic) was below 0.6 µg/mL.

`Nc1ncc(-c2ccccc2)c(-c2ccc(OCc3ccccc3)cc2O)n1` showed a solubility (kinetic) of 0.4 µg/mL (≈ 1.08 µM).

The compound `COc1ccc(N(CC(=O)Nc2cccnc2)S(=O)(=O)c2ccccc2)cc1Cl` came in with a solubility (kinetic) of 34.2 µg/mL (≈ 79.2 µM).

Compound `CCN(CCS(=O)(=O)c1ccc(Cl)cc1)C(=O)Nc1ccc(Cl)cc1` yielded a solubility (kinetic) of 43.2 µg/mL (≈ 108 µM).

As to `O=c1[nH]c(N2CCCCCC2)nc2ncn(Cc3ccccc3)c12`, the solubility (kinetic) stood at 13 µg/mL (≈ 40.2 µM).

Consider `O=S(=O)(c1cnccc1N1CCN(CCO)CC1)N1CCCCC1`, for which the solubility (kinetic) is above 53.2 µg/mL.
